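Following 48 hours of exposure in 96-well plates, responses at five concentrations were used to interpolate endpoints linearly. At the GI50, growth is halved.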 The source made the active and inactive calls. Cut-off read from the data, not from the text of the source: active = GI50 up to about 1.1 µM and inactive = higher.
What was measured:
Experiment in all cases: inhibition of tumour cell growth, NCI panel, 48 h
CCRF-CEM = tested on: CCRF-CEM
SNB-78 = tested on: SNB-78
SNB-75 = tested on: SNB-75
UO-31 = tested on: UO-31
COLO 205 = tested on: COLO 205
SF-295 = tested on: SF-295
HCT-116 = tested on: HCT-116
SN12C = tested on: SN12C
DMS-273 = tested on: DMS-273
NCI-H23 = tested on: NCI-H23
SF-268 = tested on: SF-268
LXFL 529 = tested on: LXFL 529
HOP-92 = tested on: HOP-92
EKVX = tested on: EKVX
RXF 393 = tested on: RXF 393
HCC 2998 = tested on: HCC 2998
UACC-62 = tested on: UACC-62
TK-10 = tested on: TK-10
KM-20L2 = tested on: KM-20L2

Measured: GI50

COc1ccc(C(C2=C(C)C(=O)c3ccccc3C2=O)c2ccc(C(C)C)cc(=O)c2O)cc1 (configuration not stated)
inactive: CCRF-CEM 3.73 µM | SNB-78 5.41 µM | SNB-75 2.59 µM | UO-31 2.12 µM | COLO 205 5.31 µM | SF-295 4.7 µM | HCT-116 3.81 µM | SN12C 2.87 µM | DMS-273 2.23 µM | NCI-H23 3.51 µM | SF-268 3.77 µM | LXFL 529 4.06 µM | HOP-92 3.57 µM | EKVX 2.77 µM

COc1cc(/C=C/C(=O)c2sc(-n3nc(-c4ccccc4)cc3-c3ccccc3)nc2C)ccc1O
inactive: CCRF-CEM > 100 µM | RXF 393 13 µM | SNB-78 > 100 µM | SNB-75 7.36 µM | UO-31 > 100 µM | HCC 2998 > 100 µM | UACC-62 > 100 µM | COLO 205 > 100 µM | SF-295 57 µM | TK-10 > 100 µM | SN12C > 100 µM | DMS-273 > 100 µM | NCI-H23 > 100 µM | SF-268 > 100 µM | HOP-92 2.47 µM | EKVX 4.7 µM | KM-20L2 > 100 µM

O=C(COc1ccc(/C=C/C(=O)c2ccc(Cl)cc2)cc1)Nc1c(Cl)cccc1Cl
inactive: CCRF-CEM 20.8 µM | RXF 393 36 µM | SNB-78 58.9 µM | SNB-75 56.4 µM | UO-31 > 100 µM | UACC-62 > 100 µM | COLO 205 > 100 µM | SF-295 68.7 µM | HCT-116 38.2 µM | TK-10 > 100 µM | SN12C > 100 µM | NCI-H23 77.8 µM | SF-268 > 100 µM | LXFL 529 78.7 µM | HOP-92 19.1 µM | EKVX > 100 µM | KM-20L2 > 100 µM

O=C1OC(O)c2cc3c(cc21)OCO3 (configuration not stated)
inactive: CCRF-CEM > 100 µM | RXF 393 > 100 µM | SNB-78 > 100 µM | SNB-75 > 100 µM | UO-31 > 100 µM | HCC 2998 > 100 µM | UACC-62 > 100 µM | COLO 205 > 100 µM | SF-295 > 100 µM | HCT-116 > 100 µM | TK-10 > 100 µM | SN12C > 100 µM | DMS-273 > 100 µM | NCI-H23 > 100 µM | SF-268 > 100 µM | LXFL 529 > 100 µM | HOP-92 > 100 µM | EKVX > 100 µM

O=C1C2=C(c3ccccc31)C(c1ccccc1Cl)N1C(=O)CCSC1=N2 (configuration not stated)
inactive: CCRF-CEM > 100 µM | SNB-75 55.2 µM | UO-31 58.1 µM | HCC 2998 > 100 µM | UACC-62 76.7 µM | COLO 205 > 100 µM | SF-295 > 100 µM | HCT-116 > 100 µM | TK-10 > 100 µM | SN12C 89.9 µM | DMS-273 > 100 µM | NCI-H23 76 µM | SF-268 > 100 µM | HOP-92 30.1 µM | EKVX > 100 µM | KM-20L2 > 100 µM

COC1CCC(=C2C(=O)OC(C)(C)OC2=O)N1 (configuration not stated)
inactive: CCRF-CEM > 100 µM | RXF 393 > 100 µM | SNB-75 > 100 µM | UO-31 > 100 µM | HCC 2998 > 100 µM | UACC-62 > 100 µM | COLO 205 > 100 µM | SF-295 > 100 µM | HCT-116 > 100 µM | TK-10 > 100 µM | SN12C > 100 µM | DMS-273 > 100 µM | NCI-H23 > 100 µM | SF-268 > 100 µM | LXFL 529 > 100 µM | EKVX > 100 µM | KM-20L2 > 100 µM

C=CCSc1ncnc2c1ncn2C1OC(CO)C(O)C1O (configuration not stated)
inactive: CCRF-CEM > 100 µM | SNB-78 > 100 µM | SNB-75 65.2 µM | UO-31 42.1 µM | HCC 2998 24.3 µM | UACC-62 > 100 µM | COLO 205 41.2 µM | SF-295 87.5 µM | HCT-116 20.5 µM | TK-10 68.7 µM | SN12C 6.31 µM | DMS-273 11.7 µM | NCI-H23 18.2 µM | SF-268 34.7 µM | HOP-92 9.2 µM | EKVX > 100 µM | KM-20L2 55.7 µM

CCN(CC)c1ccc(Cl)c2c1C(O)(C(C)C)C2(C)C (configuration not stated)
inactive: CCRF-CEM 18.5 µM | RXF 393 16 µM | SNB-78 28.2 µM | SNB-75 18 µM | UO-31 17.3 µM | HCC 2998 14.8 µM | COLO 205 15.2 µM | SF-295 18.9 µM | HCT-116 14.1 µM | TK-10 16.6 µM | SN12C 16.7 µM | DMS-273 15.8 µM | NCI-H23 15 µM | SF-268 28.2 µM | LXFL 529 17 µM | KM-20L2 14 µM

COc1cc(OC)c2c(=O)c3cccc([N+](=O)[O-])c3n(C)c2c1
inactive: CCRF-CEM 60 µM | RXF 393 > 100 µM | SNB-78 > 100 µM | SNB-75 > 100 µM | UO-31 > 100 µM | UACC-62 > 100 µM | COLO 205 > 100 µM | SF-295 > 100 µM | TK-10 > 100 µM | SN12C 95.3 µM | DMS-273 60.3 µM | NCI-H23 77.8 µM | SF-268 > 100 µM | LXFL 529 > 100 µM | EKVX > 100 µM | KM-20L2 > 100 µM

Cc1ccc(-c2cc(-c3ccco3)nc(N)n2)o1
inactive: CCRF-CEM > 100 µM | RXF 393 > 100 µM | SNB-78 > 100 µM | SNB-75 37.2 µM | UO-31 58.2 µM | UACC-62 > 100 µM | COLO 205 > 100 µM | SF-295 > 100 µM | HCT-116 > 100 µM | TK-10 > 100 µM | SN12C > 100 µM | DMS-273 > 100 µM | NCI-H23 > 100 µM | SF-268 > 100 µM | LXFL 529 > 100 µM | EKVX 65.2 µM | KM-20L2 > 100 µM

[O-][S+](Cc1ccccc1)c1nc2ccccc2nc1-c1cccs1 (configuration not stated)
inactive: CCRF-CEM 4 µM | SNB-78 22 µM | SNB-75 17.6 µM | UO-31 24.8 µM | HCC 2998 12.4 µM | COLO 205 20 µM | SF-295 24.7 µM | HCT-116 10.4 µM | TK-10 14.3 µM | SN12C 14 µM | DMS-273 9.59 µM | NCI-H23 13.8 µM | SF-268 17.8 µM | LXFL 529 3.22 µM | HOP-92 15.6 µM | EKVX 27.5 µM

CC/C(=C(\c1ccccc1)c1ccc(OCC[N+](C)(C)C)cc1)c1ccccc1 [TAMOXIFEN METHYL IODIDE]
inactive: CCRF-CEM 11.5 µM | RXF 393 17.1 µM | SNB-78 12.2 µM | SNB-75 8.85 µM | UO-31 21.1 µM | HCC 2998 17.1 µM | UACC-62 11 µM | COLO 205 5.31 µM | SF-295 16.9 µM | HCT-116 17.5 µM | SN12C 9.16 µM | DMS-273 6.4 µM | SF-268 15.3 µM | LXFL 529 10 µM | EKVX 15.6 µM | KM-20L2 15.7 µM

From ChEMBL document CHEMBL1201862, “PubChem BioAssay data set” (2004)
